Measurements taken from ChEMBL document CHEMBL1201862, “PubChem BioAssay data set” (2004).
Calls of active or inactive are those of the source.

Experiments:
Cysteine protease ATG4B = Cysteine protease ATG4B (Homo sapiens, UniProt Q9Y4P1); format: functional;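 also: Fluorescence-based dose-response confirmation assay measuring inhibition of ATG4B activity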
Phospholipase A2 = Phospholipase A2 (Homo sapiens, UniProt P04054); format: functional;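 also: confirmatory dose-response counterscreen on phospholipase A2, testing hits that came from an ultra-high-throughput screen for ATG4B inhibitors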
HEK293 [1] = experiment: cytotoxicity in HEK293T NF-kB-Luc cells, SAR follow-up, cytotoxicity control for NF-kB activator project, cell-based, resazurin fluorescence (AID 493251); format: functional; details: Homo sapiens
Jurkat = experiment: SAR Analysis of small molecule inhibitors of T-cell specific antigen receptor-induced NF-kB activation in a Jurkat cell line using a luminescence assay. [Related pubchem assays (depositor defined):AID435003, AID435012, AID465]; format: functional, cell-based; details: Homo sapiens
HEK293 [2] = experiment: SAR Analysis of small molecule inhibitors of T-cell specific antigen receptor-induced NF-kB activation in a HEK-293T cell line using a luminescence assay. [Related pubchem assays (depositor defined):AID435003, AID435012, AID489026]; format: functional, cell-based; details: Homo sapiens
[3] = NIH-3T3 fibroblast cytotoxicity, dose response, cytotoxicity control, cell-based, fluorescence, Alamar Blue, secondary assay (AID 2327); format: functional;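 also: NIH-3T3 mouse fibroblasts cultured with fluconazole at 8 µg/mL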
BJ [4] = experiment: cytotoxicity toward BJ-TERT fibroblasts, dose response, cell-based, RAS-independent, luminescence (AID 1933); format: functional; details: Homo sapiens
BJ [5] = experiment: cells; format: functional, cell-based; details: Homo sapiens
[6] = C. albicans growth with fluconazole, confirmation, fluorescence, retest (AID 2467); format: functional, cell-based
BJ [7] = experiment: cytotoxicity toward BJ-TERT-LT-ST fibroblasts, dose response, cell-based, RAS-independent, luminescence (AID 1935); format: functional; details: Homo sapiens;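 also: BJ fibroblasts immortalized with TERT plus LT and ST oncogenes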
[8] = cytotoxicity toward DRD oncogenic fibroblasts, dose response, cell-based, non-viral oncogenic, luminescence (AID 1934); format: functional; details: Homo sapiens
[9] = biological target: T1, Ubiquitin-conjugating enzyme E2 N (Homo sapiens, UniProt P61088); format: functional;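 also: Dose-response confirmation in a TR-FRET assay detecting UBC13-driven polyubiquitin chain formation, inhibition measured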
T1 sequence (P61088 whole entry): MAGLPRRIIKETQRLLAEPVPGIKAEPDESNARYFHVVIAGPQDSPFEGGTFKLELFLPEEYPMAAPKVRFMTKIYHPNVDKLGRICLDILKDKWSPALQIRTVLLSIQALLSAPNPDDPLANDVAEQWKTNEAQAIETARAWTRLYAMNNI

Mu-type opioid receptor = Mu-type opioid receptor (Homo sapiens, UniProt P35372); format: functional, cell-based;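 also: U2OS cells with beta-arrestin recruitment to OPRM1 by beta-gal complementation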
[10] = biological target: 5-hydroxytryptamine receptor 2A (Mus musculus, UniProt P35363); format: functional, cell-based;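 also: CHO-K1 cells with tagged receptor and beta-arrestin; agonist potency measured as compound-induced activation of the receptor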
[11] = biological target: Voltage-gated inwardly rectifying potassium channel KCNH2 (Homo sapiens, UniProt Q12809); details: Potency;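 also: confirmatory quantitative high-throughput screen measuring inhibition of hERG channel activity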
HEK293 [12] = experiment: NOD1 signaling inhibitors, primary screen, cell-based, luminescence, uHTS (AID 1578); format: functional; details: Homo sapiens
HEK293 [13] = experiment: cells; format: functional, cell-based; details: Homo sapiens
HEK293 [14] = experiment: cells; format: functional, cell-based; details: Homo sapiens; remark: listed apart in the source
[15] = Luminescence-based counterscreen assay for KLF5 inhibitors: dose response cell-based high throughput screening assay to identify cytotoxic compounds using the IEC-6 intestinal epithelial cell line. [Related pubchem assays: 1700 (Primary screen.), 1834 (Confirmation screen.), 1858 (Summary AID.), 1905 (Counterscreen.)]; format: functional
[16] = biological target: Nucleotide-binding oligomerization domain-containing protein 2 (Homo sapiens, UniProt Q9HC29); experiment: NOD2 signaling inhibitors, cell-based, luminescence, uHTS, HEK293 (AID 1566); format: functional
HEK293 [17] = experiment: NOD2 signaling inhibitors in MDP-stimulated cells, cell-based, uHTS, luminescence (AID 2001); format: functional; details: Homo sapiens
HEK293 [18] = experiment: cells; format: functional, cell-based; details: Homo sapiens; remark: listed apart in the source
Tumor necrosis factor = Tumor necrosis factor (Homo sapiens, UniProt P01375); experiment: TNFa-triggered NF-kB activation inhibitors, SAR follow-up, cell-based, revised (AID 2337); format: functional
[19] = biological target: T2, Nucleotide-binding oligomerization domain-containing protein 1 (Homo sapiens, UniProt Q9Y239); experiment: NOD1 signaling inhibitors, SAR follow-up, revised (AID 2333); format: functional
T2 sequence (Q9Y239 whole entry): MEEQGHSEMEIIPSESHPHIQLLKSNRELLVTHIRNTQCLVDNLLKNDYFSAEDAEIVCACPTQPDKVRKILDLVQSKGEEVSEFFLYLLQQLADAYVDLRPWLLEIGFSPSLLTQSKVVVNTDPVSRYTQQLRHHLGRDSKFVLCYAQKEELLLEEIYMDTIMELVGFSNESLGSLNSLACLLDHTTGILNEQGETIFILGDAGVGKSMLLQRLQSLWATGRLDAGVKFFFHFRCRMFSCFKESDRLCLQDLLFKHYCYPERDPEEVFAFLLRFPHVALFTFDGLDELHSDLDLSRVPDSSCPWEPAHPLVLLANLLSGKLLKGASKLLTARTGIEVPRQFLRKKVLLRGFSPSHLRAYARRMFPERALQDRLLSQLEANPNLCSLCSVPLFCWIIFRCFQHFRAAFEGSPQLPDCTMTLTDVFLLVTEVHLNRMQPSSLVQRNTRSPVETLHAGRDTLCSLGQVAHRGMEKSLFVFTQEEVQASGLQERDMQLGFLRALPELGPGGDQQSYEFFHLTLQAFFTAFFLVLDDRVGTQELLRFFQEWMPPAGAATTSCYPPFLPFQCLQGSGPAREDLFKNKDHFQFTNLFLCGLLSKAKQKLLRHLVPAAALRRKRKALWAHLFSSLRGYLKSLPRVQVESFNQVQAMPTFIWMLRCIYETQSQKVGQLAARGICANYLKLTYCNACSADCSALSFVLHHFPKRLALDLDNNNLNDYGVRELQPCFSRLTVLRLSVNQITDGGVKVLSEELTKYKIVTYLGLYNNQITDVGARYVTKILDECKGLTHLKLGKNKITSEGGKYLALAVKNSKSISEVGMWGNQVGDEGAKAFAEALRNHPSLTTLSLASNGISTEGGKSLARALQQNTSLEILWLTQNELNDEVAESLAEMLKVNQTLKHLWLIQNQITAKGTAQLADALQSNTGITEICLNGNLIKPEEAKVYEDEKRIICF

[20] = cytotoxicity in HEK-293T cells, dose response, cytotoxicity control for TCR NF-kB inhibitor project, luminescence, T-cell screen hits (AID 489026); format: functional, cell-based;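 also: cells exposed to compound about 14 hours before the viability readout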
H4 [21] = experiment: inhibitors of control reporter signal in H4 cells – cell-based, plate reader, dry powder samples, counter-screen for prion reporter project, dose response (AID 540255); format: functional; details: Homo sapiens
H4 [22] = experiment: Inhibitors of Prion Protein 5' UTR mRNA Measured in Cell-Based System Using Plate Reader - 2078-01_Inhibitor_Dose_DryPowder_Activity. [Related pubchem assays (depositor defined):AID488894]; format: functional; details: Homo sapiens
HEK293 [23] = experiment: cells; details: Homo sapiens
[24] = biological target: Eukaryotic translation initiation factor 4H (Homo sapiens, UniProt Q15056); experiment: human eIF4H binding inhibitors, primary screen, translation initiation inhibitor project, biochemical, uHTS, fluorescence polarization (AID 2012)
[25] = biological target: Induced myeloid leukemia cell differentiation protein Mcl-1 (Homo sapiens, UniProt Q07820); format: functional
[26] = biological target: Polyadenylate-binding protein 1 (Homo sapiens, UniProt P11940); experiment: PABP poly(A) RNA binding inhibitors, primary screen, biochemical, fluorescence polarization, uHTS (AID 2014)
[27] = biological target: Beta-adrenergic receptor kinase 1 (Homo sapiens, UniProt P25098); experiment: aptamer displacement from bead-bound GRK2 – biochemical, cherry pick 1, bead flow cytometry, dose response (AID 504500)
[28] = biological target: T3, Apoptotic protease-activating factor 1 (Homo sapiens, UniProt O14727); experiment: activation of Apaf-1 mediated apoptosis – fluorescent, uHTS hits, dose response (AID 588554); format: functional
T3 sequence (O14727 whole entry): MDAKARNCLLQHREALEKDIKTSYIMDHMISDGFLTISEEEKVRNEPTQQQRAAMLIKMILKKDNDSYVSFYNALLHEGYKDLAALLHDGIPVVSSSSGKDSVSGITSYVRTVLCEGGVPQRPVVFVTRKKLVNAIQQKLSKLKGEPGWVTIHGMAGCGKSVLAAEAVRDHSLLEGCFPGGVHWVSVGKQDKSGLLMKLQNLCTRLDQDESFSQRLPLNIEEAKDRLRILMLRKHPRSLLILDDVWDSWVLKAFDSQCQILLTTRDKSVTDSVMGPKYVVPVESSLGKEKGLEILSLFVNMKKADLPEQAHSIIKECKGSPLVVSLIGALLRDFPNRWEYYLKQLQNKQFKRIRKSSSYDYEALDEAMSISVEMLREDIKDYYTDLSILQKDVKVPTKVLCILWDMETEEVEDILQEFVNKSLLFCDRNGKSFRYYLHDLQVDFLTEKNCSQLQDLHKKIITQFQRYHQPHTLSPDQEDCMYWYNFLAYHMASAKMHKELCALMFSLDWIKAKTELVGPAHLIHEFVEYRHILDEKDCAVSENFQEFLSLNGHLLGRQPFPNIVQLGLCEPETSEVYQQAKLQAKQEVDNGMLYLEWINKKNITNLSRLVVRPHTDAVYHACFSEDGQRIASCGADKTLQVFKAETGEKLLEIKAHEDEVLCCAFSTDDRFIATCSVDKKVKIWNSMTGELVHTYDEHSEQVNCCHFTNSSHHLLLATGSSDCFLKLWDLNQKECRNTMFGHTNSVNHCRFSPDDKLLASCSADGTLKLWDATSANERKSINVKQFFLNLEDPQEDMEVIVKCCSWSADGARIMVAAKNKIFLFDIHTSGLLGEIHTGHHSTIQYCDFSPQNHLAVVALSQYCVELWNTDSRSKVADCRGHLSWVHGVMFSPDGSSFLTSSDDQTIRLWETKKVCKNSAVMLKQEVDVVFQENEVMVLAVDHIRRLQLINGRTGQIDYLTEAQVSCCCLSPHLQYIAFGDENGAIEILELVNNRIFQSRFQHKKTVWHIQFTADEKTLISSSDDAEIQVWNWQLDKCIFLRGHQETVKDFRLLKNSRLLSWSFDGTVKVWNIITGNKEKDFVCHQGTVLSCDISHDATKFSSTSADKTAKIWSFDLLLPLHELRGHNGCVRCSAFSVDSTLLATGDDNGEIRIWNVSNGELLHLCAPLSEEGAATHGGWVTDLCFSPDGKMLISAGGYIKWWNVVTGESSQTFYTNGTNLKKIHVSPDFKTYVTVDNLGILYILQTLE

[29] = biological target: Latent membrane protein 1 (Human herpesvirus 4 (strain B95-8), UniProt P03230); experiment: TES1-eGFP NF-kB reporter inhibition versus Tet-On dsRED, dose response, selectivity assay for LMP1 NF-kB inhibitor project, imaging, HEK293T, dual-color eGFP/dsRED, cherry-picks (AID 588398); format: functional, cell-based
[30] = viability loss in Mcl1-dependent HMC-1-8 cells, dose response, selectivity assay for A1 inhibitor project, cell-based, luminescence, dry powder (AID 504415); format: functional; details: Homo sapiens

Sequence of Nucleotide-binding oligomerization domain-containing protein 2 (Q9HC29 whole entry, the tested form may be a part): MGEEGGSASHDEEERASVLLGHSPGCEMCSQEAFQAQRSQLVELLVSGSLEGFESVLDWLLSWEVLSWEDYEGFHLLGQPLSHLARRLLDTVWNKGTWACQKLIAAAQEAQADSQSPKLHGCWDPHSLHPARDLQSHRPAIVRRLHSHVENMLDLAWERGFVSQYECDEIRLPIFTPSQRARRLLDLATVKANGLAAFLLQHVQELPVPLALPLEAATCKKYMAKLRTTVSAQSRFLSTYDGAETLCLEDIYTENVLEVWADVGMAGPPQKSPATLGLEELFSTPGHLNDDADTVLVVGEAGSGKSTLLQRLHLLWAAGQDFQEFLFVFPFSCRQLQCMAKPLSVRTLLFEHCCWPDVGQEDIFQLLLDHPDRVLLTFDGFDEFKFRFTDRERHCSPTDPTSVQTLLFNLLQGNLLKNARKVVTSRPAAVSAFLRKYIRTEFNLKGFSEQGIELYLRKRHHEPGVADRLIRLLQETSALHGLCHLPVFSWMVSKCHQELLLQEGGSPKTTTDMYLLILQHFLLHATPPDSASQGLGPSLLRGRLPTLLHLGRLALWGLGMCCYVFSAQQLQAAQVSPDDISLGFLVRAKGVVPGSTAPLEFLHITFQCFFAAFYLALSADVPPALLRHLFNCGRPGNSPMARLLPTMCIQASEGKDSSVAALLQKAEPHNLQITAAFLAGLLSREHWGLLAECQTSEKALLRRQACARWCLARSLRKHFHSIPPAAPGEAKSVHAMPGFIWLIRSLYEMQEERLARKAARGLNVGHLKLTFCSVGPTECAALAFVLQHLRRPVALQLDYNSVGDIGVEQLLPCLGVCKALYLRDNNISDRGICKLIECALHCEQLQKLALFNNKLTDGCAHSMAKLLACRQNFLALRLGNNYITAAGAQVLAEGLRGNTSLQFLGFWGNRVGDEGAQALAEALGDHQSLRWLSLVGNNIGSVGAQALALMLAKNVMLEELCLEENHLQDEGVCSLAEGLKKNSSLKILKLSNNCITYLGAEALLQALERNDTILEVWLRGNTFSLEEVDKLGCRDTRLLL
Sequence of Polyadenylate-binding protein 1 (P11940 whole entry): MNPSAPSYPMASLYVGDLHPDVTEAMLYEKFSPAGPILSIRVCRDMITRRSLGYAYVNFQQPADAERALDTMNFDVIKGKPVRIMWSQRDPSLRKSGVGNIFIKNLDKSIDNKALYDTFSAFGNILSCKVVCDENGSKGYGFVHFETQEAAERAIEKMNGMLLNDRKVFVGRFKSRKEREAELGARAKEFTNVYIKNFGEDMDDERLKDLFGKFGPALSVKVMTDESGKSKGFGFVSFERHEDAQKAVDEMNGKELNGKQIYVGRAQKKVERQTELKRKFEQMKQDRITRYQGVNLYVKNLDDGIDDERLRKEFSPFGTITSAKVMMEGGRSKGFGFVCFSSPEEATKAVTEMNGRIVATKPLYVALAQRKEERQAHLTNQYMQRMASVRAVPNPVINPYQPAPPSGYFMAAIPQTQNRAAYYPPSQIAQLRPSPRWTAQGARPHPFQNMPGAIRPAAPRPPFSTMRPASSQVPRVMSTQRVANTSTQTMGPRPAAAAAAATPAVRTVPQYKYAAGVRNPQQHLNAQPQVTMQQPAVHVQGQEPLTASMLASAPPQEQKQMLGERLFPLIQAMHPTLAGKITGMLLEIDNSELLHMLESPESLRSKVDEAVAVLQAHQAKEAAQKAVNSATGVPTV
Sequence of Induced myeloid leukemia cell differentiation protein Mcl-1 (Q07820 whole entry): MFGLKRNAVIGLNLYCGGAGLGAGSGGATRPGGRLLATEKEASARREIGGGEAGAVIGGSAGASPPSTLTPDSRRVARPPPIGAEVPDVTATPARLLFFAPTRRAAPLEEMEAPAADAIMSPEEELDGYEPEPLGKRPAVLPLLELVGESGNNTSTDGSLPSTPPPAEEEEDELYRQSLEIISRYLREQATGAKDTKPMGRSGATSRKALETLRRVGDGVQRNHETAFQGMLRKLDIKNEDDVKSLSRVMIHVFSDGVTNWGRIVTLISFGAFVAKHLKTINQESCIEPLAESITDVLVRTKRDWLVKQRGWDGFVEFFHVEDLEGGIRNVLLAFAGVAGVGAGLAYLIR
Sequence of Phospholipase A2 (P04054 whole entry): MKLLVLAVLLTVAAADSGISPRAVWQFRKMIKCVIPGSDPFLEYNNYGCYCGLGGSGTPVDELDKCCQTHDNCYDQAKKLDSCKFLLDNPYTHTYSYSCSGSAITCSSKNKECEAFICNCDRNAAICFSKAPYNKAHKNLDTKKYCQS
Sequence of Mu-type opioid receptor (P35372 whole entry): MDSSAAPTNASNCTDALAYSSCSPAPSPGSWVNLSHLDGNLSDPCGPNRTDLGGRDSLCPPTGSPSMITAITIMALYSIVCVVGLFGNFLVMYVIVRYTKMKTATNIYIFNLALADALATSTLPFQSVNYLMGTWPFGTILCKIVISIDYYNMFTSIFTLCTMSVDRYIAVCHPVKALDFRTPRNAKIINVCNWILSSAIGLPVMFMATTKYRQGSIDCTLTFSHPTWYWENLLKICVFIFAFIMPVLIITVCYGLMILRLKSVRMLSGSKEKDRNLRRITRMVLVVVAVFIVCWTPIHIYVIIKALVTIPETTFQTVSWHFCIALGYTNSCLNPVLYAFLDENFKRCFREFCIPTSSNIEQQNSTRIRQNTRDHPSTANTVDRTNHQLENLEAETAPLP
Sequence of Voltage-gated inwardly rectifying potassium channel KCNH2 (Q12809 whole entry): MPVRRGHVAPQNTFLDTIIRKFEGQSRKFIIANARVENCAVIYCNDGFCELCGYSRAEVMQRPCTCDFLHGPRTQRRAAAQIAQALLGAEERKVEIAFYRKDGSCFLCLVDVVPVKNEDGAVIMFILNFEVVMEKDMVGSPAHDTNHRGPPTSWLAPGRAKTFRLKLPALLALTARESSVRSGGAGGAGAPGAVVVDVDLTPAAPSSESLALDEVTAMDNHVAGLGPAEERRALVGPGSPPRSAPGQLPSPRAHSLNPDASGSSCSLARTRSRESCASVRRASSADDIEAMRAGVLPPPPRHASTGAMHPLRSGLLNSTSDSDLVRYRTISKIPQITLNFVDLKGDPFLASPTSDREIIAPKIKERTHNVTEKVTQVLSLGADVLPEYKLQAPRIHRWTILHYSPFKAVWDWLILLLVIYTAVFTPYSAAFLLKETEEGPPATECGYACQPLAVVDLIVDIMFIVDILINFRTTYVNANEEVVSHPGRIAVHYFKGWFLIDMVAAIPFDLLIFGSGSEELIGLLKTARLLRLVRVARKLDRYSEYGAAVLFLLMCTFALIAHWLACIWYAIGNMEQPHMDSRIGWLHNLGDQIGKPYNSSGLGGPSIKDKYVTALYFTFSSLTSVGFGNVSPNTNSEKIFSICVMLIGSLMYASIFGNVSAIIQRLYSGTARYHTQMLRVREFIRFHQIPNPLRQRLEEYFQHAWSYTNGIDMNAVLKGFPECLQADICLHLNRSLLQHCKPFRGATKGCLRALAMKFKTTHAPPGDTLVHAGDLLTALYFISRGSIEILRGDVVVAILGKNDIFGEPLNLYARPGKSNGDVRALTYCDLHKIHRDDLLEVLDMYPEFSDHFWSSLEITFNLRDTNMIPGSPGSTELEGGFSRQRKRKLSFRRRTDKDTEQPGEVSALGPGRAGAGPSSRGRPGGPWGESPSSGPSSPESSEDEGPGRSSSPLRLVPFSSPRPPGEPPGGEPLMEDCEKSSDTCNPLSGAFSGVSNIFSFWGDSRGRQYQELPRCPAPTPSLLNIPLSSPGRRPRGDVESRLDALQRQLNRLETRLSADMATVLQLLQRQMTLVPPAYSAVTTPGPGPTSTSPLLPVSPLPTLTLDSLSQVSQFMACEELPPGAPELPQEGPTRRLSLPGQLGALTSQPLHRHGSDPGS
Sequence of Tumor necrosis factor (P01375 whole entry, the tested form may be a part): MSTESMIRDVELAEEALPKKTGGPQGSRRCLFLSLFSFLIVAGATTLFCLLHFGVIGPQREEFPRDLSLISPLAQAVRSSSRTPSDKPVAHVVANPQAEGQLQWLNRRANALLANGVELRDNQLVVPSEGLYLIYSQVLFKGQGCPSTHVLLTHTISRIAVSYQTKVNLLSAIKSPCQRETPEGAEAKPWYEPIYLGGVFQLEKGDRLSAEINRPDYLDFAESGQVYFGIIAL
Sequence of 5-hydroxytryptamine receptor 2A (P35363 whole entry): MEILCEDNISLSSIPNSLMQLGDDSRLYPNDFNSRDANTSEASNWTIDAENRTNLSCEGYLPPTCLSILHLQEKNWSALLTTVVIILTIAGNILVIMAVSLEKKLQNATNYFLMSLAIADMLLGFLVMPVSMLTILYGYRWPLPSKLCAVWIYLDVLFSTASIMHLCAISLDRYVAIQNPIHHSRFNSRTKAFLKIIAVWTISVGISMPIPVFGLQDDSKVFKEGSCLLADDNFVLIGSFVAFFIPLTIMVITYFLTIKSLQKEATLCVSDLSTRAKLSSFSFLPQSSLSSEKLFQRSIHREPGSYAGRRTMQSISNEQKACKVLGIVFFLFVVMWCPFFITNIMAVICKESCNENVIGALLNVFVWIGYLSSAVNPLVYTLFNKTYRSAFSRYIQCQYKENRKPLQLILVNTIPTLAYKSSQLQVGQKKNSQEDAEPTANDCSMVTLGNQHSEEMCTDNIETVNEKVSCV

SMILES: CC(C)c1ccc(NC2CCCN(C(=O)c3cc(C(C)C)n[nH]3)C2)cc1 (centres undefined)
- IC50 (Cysteine protease ATG4B): 16.8 µM (active)
- IC50 (Phospholipase A2): 12.2 µM (active)

SMILES: COc1ccc(C(NC(C)=O)c2ccc3cccnc3c2O)cc1 (centres undefined)
- IC50 (HEK293 [1]): 16.5 µM (active)
- IC50 (Jurkat): 4.23 µM (active)
- IC50 (HEK293 [2]): 6.35 µM (active)

SMILES: NC[C@@H]1O[C@H](C23CC4CC(CC(C4)C2)C3)Cc2c1ccc(O)c2O
- EC50 [3]: > 150 µM (inactive)
- EC50 (BJ [4]): 10.3 µM (inconclusive)
- EC50 (BJ [5]): > 150 µM (not active)
- EC50 [6]: 4.44 µM (active)
- EC50 (BJ [7]): 13.7 µM (inconclusive)
- EC50 [8]: 13.1 µM (active)
- IC50 [9]: > 20 µM (inactive)
- EC50 (Mu-type opioid receptor): 92.4 µM (inactive)
- EC50 [10]: 1.2 µM (active)
- AC50 [11]: 22.4 µM (inconclusive)

SMILES: CC(C)(C)c1ccc(C(=O)O/N=C(\N)c2ccccn2)cc1
- EC50 (HEK293 [12]): 2.73 µM (active)
- IC50 (HEK293 [13]): < 0.312 µM (active)
- IC50 (HEK293 [14]): > 20 µM (inactive)
- IC50 [15]: 23.1 µM (not active)
- EC50 [16]: 0.04 µM (active)
- IC50 (HEK293 [17]): 3.04 µM (active)
- IC50 (HEK293 [18]): > 20 µM (inactive)
- IC50 (Tumor necrosis factor): 0.952 µM (active)
- IC50 [19]: 2 µM (active)
- IC50 [20]: > 80 µM (inactive)
- AC50 (H4 [21]): 0.034 µM (active)
- AC50 (H4 [22]): 0.032 µM (active)
- IC50 (HEK293 [23]): > 20 µM (inactive)

SMILES: C=C(C)C(=O)Nc1cccc(C2=NOC3(C2)C[C@@H](C(N)=O)N(C(=O)c2ccc(Cl)cc2)C3)c1 (some centres undefined)
- IC50 [24]: 0.7 µM (active)
- IC50 [25]: 1.54 µM (active)
- IC50 [26]: 9.01 µM (active)
- EC50 [27]: 0.73 µM (active)
- EC50 [28]: 2.35 µM (active)

SMILES: CCOc1ccc(C(C)=O)cc1COc1cccnc1[N+](=O)[O-]
- EC50 (BJ [4]): 23.1 µM (active)
- EC50 (BJ [5]): 32.2 µM (active)
- EC50 (BJ [7]): > 150 µM (inconclusive)
- EC50 [8]: 21.9 µM (active)
- AC50 [29]: 80.9 µM (active)

SMILES: O=c1oc2ccccc2c(Sc2ccccc2)c1[N+](=O)[O-]
- AC50 [30]: 56.1 µM (active)
